# Reference: patent publication US20220079935A1, “COMPOUNDS AND TREATMENTS THAT ENHANCE ENTERIC NERVOUS SYSTEM FUNCTION” (The Johns Hopkins University, priority 2019, published 2022)
# Entries after “also recorded” stand apart in the source; their conditions may differ.
# Columns and labels:
# TrkB = biological target: T1, TrkB (Mus musculus, UniProt P15209, F616A); assay: TrkB inhibition in NTrk2 tmlDdg/J mutant mice; type: in vivo; settings: 1NMPP1 25 μM injected in NTrk2 tmlDdg/J mutant mice; preliminary
# T1 construct: from tissue; host or cells: NTrk2 tm1Ddg/J knock-in mutant mice (in vivo; intestine)
# T1 sequence (P15209 32-821 F616A): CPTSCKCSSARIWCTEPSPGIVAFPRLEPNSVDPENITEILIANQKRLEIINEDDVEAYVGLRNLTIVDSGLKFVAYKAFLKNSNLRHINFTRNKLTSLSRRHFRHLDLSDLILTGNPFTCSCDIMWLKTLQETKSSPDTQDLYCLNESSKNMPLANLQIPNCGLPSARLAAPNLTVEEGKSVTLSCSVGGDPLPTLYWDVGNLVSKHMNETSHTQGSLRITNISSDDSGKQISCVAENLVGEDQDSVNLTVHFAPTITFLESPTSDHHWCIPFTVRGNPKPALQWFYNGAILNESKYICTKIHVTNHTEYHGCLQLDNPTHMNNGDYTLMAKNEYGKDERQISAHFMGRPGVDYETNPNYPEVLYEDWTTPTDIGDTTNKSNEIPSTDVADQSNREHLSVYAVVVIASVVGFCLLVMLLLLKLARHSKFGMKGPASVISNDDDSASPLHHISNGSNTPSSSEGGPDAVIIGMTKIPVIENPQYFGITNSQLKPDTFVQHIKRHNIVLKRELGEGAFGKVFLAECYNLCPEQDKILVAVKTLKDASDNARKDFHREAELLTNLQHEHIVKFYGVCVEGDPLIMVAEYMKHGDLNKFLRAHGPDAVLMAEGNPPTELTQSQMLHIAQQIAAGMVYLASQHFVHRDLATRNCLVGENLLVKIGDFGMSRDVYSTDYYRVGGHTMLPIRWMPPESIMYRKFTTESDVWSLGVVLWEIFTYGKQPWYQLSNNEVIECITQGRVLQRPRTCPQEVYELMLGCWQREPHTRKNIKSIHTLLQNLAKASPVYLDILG
# [1] = test system: enteric glial cells (EGC/PK060399egfr, ATCC CRL-2690); assay: BDNF mRNA expression by enteric glial cells (qPCR); type: cell-based, rat; settings: 10 μM and 20 μM J11
# Protocol: FIG. 17 depicts a time response curve showing the BDNF mRNA expression by enteric glial cells stimulated with 10 μM and 20 μM J11. The enteric glial cells (EGC/PK060399egfr, ATCC® CRL-2690™) were treated with 10 μM and 20 μM J11, and the enteric glial cells were harvested at 2, 6, 24 and 48 hours after treatment.
# The enteric glial cells (EGC/PK060399egfr, ATCC® CRL-2690™) were treated with 10 μM and 20 μM J11, and the enteric glial cells were harvested at 2, 6, 24 and 48 hours after treatment. Total RNA was isolated using the RNeasy mini kit following the manufacturer's protocol. Complementary DNA was synthesized from 0.5 μg RNA using M-MLV reverse transcriptase. The qPCR analysis was performed with the Bio-Rad CFX96 Real-Time System (Biorad, Hercules, Calif.). The relative BDNF mRNA expression was normalized against the expression of housekeeping gene RPLO.
# TLR4 signaling [2] = assay: LPS-mediated TLR4 signaling in the intestine of mice; type: in vivo
# Protocol: (§1) FIGS. 5A-5K. BDNF restrains TLR4 signaling in the intestinal epithelium. 5A) enterocytes. 5B) In wild-type mice, BDNF (1 μg/kg) LPS (5 mg/kg) injection for 6 hrs. 5C) qRT-PCR of human ileum freshly harvested from patient with NEC treated with LPS (25 μg/kg) for 6 hr. 5D-H) H&E images. 5I) BDNF ELISA. 5J-K) TNFα and NEC severity. *p<0.05 by ANOVA; 5-10 mice per experiment.
# (§2) Fifth, wild-type mice with NEC show reduced levels of BDNF in the intestinal mucosa (FIG. 5H-I), consistent with the reduction in glia.
# (§3) The inventors next embarked on a strategy to identify novel therapeutic agents for NEC based upon their ability to enhance glial function and thus reduce TLR4 signaling and NEC. To do so, several libraries of FDA approved compounds were screened against the rat enteric glia cell line EGC/PK060399 (ATCC® CRL-2690™) for their ability to induce BDNF release, then the hits were validated by their ability to reduce NEC in mice. The lead hit, shown in FIG. 6A, is a C13H11NO5 compound with MW 261.23Da, herein named “J11”.
# (§4) The inventors sought to determine how BDNF inhibits TLR4 and thus attenuates NEC. BDNF is known to signal principally via its receptor, namely tropomyosin-related kinase B (TrkB), which the inventors now show to be present in the intestinal epithelium (FIG. 7). The inventors have now knocked down TrkB in IEC-6 enterocytes (FIG. 7A) using lentiviral delivery of TrkB shRNA.
# [3] = test system: premature human intestine obtained after surgery for NEC; assay: Human NEC intestine treated ex vivo with LPS; type: cell-based
# Protocol: as §1, §2, §3
# [4] = test system: rat enteric glia cell line EGC/PK060399 (ATCC CRL-2690); assay: BDNF release from cultured enteric glia cell line (BDNF ELISA); type: cell-based
# Protocol: FIG. 16 is a time response curve showing the BDNF secretion by enteric glial cells stimulated with 10 μM J11. The enteric glial cells (EGC/PK060399egfr, ATCC® CRL-2690™) were treated with 10 μM J11, and the conditional medium were harvested at 2, 6, 24 and 48 hours after treatment. The BDNF secretion was quantified using BDNF ELISA kit following the manufacturer's protocol.
# as §3
# A dose-response curve was established for oxolinic acid (J11) in inducing BDNF release in the enteric glia cell line EGC/PK060399, and will be used evaluate a safety profile based upon its mean effective dose in mice. […] The BDNF secretion was quantified using BDNF ELISA kit following the manufacturer's protocol. The amount of BDNF was time dependent with the greatest secretion after 48 hours of exposure.
# [5] = test system: intestine of wild type mice; assay: BDNF release in the intestine after oral administration; type: in vivo; settings: oral administration 20 mg/kg, wild type mice (FIG. 6C)
# NEC in mice = assay: Experimental NEC model in mice; type: in vivo
# Protocol: In the inventors' NEC model, 7d old mice are gavaged with a combination of Similac Advance infant formula (Abbott Nutrition):Esbilac canine milk replacer (PetAb) in a 2:1 ratio at 50 μl/g every 3 hours, and subjected to 10 minutes of hypoxia (5% O2 95% N2 in a Billups-Rothenberg chamber) twice daily for four days, and then orally gavaged dysbiotic bacteria (1×10^5 cfu/ml) obtained from the stool of a patient with severe NEC (see our recent JCI paper for more model details^7). This protocol induces patchy intestinal necrosis and mucosal disruption which mimics human NEC in wild-type mice, but not in either TLR4^ΔIEC or TLR4^−/− littermates.
# TLR4 signaling [6] = assay: LPS-induced cytokine expression in cultured enterocytes or enteroids; type: cell-based, mice; settings: BDNF 1 μg/ml
# Description: as §2, §4
molecule,measurement,setting,value
CC(C)(C)n1nc(Cc2cccc3ccccc23)c2c(N)ncnc21 [1NMPP1],TrkB inhibition,TrkB,preliminarily achieved TrkB inhibition
"CCn1cc(C(=O)O)c(=O)c2cc3c(cc21)OCO3 [J11, oxolinic acid]",time of maximal BDNF mRNA expression,"[1]; harvested at 2, 6, 24 and 48 hours",24 h
same,BDNF mRNA expression,[1]; normalized to RPLO (FIG. 17),stimulated
same,LPS-mediated TLR4 signaling in the intestine,"TLR4 signaling [2]; LPS 5 mg/kg, wild type mice (FIG. 6D)",inhibited LPS (5 mg/kg)-mediated TLR4 signaling
same,TLR4 signaling / inflammation in human NEC intestine,"[3]; J11 10 μM, LPS 25 μg/ml, ex vivo",reduced TLR4 signaling; also recorded: reduces TLR4 signaling in human tissue; also recorded: reduces inflammation in human NEC tissue ex vivo
same,BDNF release in human NEC intestine,"[3]; J11 10 μM, ex vivo",significantly induced BDNF release
same,time of greatest BDNF secretion,"[4]; 10 μM J11, conditional medium harvested at 2, 6, 24 and 48 hours, BDNF ELISA (FIG. 16)",48 h
same,BDNF release from enteric glia,[4]; cultured enteric glia (FIG. 6B),induced BDNF release
same,BDNF release in the intestine,[5],induced BDNF release
same,NEC severity,"NEC in mice; administered orally 20 mg/kg/day to 7d old mice, 20 mg/kg/day",significantly reduced NEC severity; also recorded: prevents NEC in mice
"BDNF: brain derived neurotrophic factor, enteric glia-derived peptide signalling through TrkB (protein, UniProt P23560 19-247, looked up) Neurotrophic factor BDNF …: APMKEANIRGQGGLAYPGVRTHGTLESVNGPKAGSRGLTSLADTFEHVIEELLDEDQKVRPNEENNKDADLYTSRVMLSSQVPLEPPLLFLLEEYKNYLDAANMSMRVRRHSDPARRGELSVCDSISEWVTAADKKTAVDMSGGTVTVLEKVPVSKGQLKQYFYETKCNPMGYTKEGCRGIDKRHWNSQCRTTQSYVRALTMDSKKRIGWRFIRIDTSCVCTLTIKRGR",TLR4-mediated expression of pro-inflammatory cytokines in the intestinal mucosa,"TLR4 signaling [2]; BDNF 1 μg/kg injection, wild type mice, 6h after LPS injection (FIG. 5B)",significantly reduced TLR4-mediated expression of the pro-inflammatory cytokines
same,LPS-mediated TNF induction in mice deficient in TrkB,"TLR4 signaling [2]; newborn mice, TrkB shRNA by oral gavage, BDNF 1 μg/kg (FIG. 7B)",no protection of LPS-mediated TNF induction by BDNF
same,intestinal TNFα in glia KO mouse,"TLR4 signaling [2]; qRT-PCR, glia KO mouse (FIG. 3B)",reversed by BDNF
same,protection from LPS in ileum from NEC patients,[3]; ileum from NEC patients treated with BDNF (FIG. 5C),protection was seen
same,TLR4-induced cytokine expression,"TLR4 signaling [6]; LPS 50 μg/ml, cultured enterocytes or enteroids from wild-type mice (FIG. 5A)",reduced TLR4 signaling
same,LPS induced IL-6 expression after TrkB knockdown,"TLR4 signaling [6]; IEC-6 cells with TrkB shRNA, LPS 50 μg/ml (FIG. 7A)",knockdown of TrkB prevented BDNF (1 μg/ml)-mediated protection; also recorded: prevents BDNF protection of LPS TLR4-induced cytokine expression
same,NEC in mice lacking TrkB in the intestinal epithelium,"NEC in mice; TrkB-lacking intestinal epithelium, BDNF administration",not protected by BDNF administration
same,NEC severity in the glial-KO mouse model,"NEC in mice; glial-KO mice, BDNF 1 μg/kg (FIGS. 5H-K)",significantly reversed the severe NEC; also recorded: reversed by the administration of BDNF
same,NEC development,"NEC in mice; oral BDNF 1 μg/kg on each day of the model, histology and inflammatory cytokines",significantly protected against NEC development
